Source: patent publication US12157741B2, “Macrocyclic inhibitors of DYRK1A” (DANA-FARBER CANCER INSTITUTE, INC., priority 2018, dated 2024)
Read-outs that look alike come from different tables or passages of the source.

Experiments:
Format in all cases: binding
[1] = molecular target: various enzymes (Homo sapiens, UniProt O96013); details: compound 1 uM
Protocol: (§1) Ambit profiling was conducted in accordance with the manufacturer's instructions.

[2] = molecular target: T1, various enzymes (Homo sapiens, UniProt Q96L34); details: compound 1 uM
T1 sequence (Q96L34 1-752): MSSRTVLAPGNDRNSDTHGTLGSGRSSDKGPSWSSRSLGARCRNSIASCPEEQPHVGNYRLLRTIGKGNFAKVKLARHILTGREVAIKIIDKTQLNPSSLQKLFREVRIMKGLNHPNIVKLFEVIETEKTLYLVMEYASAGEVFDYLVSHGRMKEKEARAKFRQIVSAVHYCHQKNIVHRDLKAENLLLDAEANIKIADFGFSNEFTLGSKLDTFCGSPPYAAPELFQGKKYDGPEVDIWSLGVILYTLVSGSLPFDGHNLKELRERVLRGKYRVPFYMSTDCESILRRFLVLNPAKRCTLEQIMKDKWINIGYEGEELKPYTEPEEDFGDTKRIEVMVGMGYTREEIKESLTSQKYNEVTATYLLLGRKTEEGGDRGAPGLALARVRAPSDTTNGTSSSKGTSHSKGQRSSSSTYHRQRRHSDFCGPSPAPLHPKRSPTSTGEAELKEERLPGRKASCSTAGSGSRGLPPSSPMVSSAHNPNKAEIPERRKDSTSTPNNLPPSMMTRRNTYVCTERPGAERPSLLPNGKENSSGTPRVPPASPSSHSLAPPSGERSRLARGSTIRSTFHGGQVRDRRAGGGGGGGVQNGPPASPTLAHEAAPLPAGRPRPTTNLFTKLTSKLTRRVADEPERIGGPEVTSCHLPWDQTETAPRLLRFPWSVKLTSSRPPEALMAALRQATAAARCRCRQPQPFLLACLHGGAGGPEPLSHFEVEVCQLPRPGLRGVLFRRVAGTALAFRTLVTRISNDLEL
Protocol: as §1

[3] = molecular target: various enzymes (Homo sapiens, UniProt Q06187); details: compound 1 uM
Protocol: as §1

[4] = molecular target: various enzymes (Homo sapiens, UniProt Q8NEV4); details: compound 1 uM
Protocol: as §1

[5] = molecular target: various enzymes (Homo sapiens, UniProt Q2M2I8); details: compound 1 uM
Protocol: as §1

[6] = molecular target: various enzymes (Homo sapiens, UniProt P06241); details: compound 1 uM
Protocol: as §1

[7] = molecular target: various enzymes (Homo sapiens, UniProt Q13554); details: compound 1 uM
Protocol: as §1

[8] = molecular target: various enzymes (Homo sapiens, UniProt P17948); details: compound 1 uM
Protocol: as §1

[9] = molecular target: various enzymes (Homo sapiens, UniProt O00141); details: compound 1 uM
Protocol: as §1

[10] = molecular target: various enzymes (Homo sapiens, UniProt Q13233); details: compound 1 uM
Protocol: as §1

[11] = molecular target: various enzymes (Homo sapiens, UniProt P25098); details: compound 1 uM
Protocol: as §1

[12] = molecular target: various enzymes (Homo sapiens, UniProt P42336, E545A)
Protocol: as §1

[13] = molecular target: various enzymes (Homo sapiens, UniProt Q07002); details: compound 1 uM
Protocol: as §1

[14] = molecular target: various enzymes (Homo sapiens, UniProt Q16566); details: compound 1 uM
Protocol: as §1

[15] = molecular target: various enzymes (Homo sapiens, UniProt P78362); details: compound 1 uM
Protocol: as §1

[16] = molecular target: various enzymes (Homo sapiens, UniProt P53778); details: compound 1 uM
Protocol: as §1

[17] = molecular target: various enzymes (Homo sapiens, UniProt O75116); details: compound 1 uM
Protocol: as §1

[18] = molecular target: various enzymes (Homo sapiens, UniProt P10721, D816H)
Protocol: as §1

[19] = molecular target: various enzymes (Homo sapiens, UniProt P29597); details: compound 1 uM
Protocol: as §1

[20] = molecular target: various enzymes (Homo sapiens, UniProt P31152); details: compound 1 uM
Protocol: as §1

[21] = molecular target: various enzymes (Homo sapiens, UniProt P00519, Q252H); details: compound 1 uM
Protocol: as §1

Sequence of various enzymes (Homo sapiens, UniProt P29597) (P29597 whole entry): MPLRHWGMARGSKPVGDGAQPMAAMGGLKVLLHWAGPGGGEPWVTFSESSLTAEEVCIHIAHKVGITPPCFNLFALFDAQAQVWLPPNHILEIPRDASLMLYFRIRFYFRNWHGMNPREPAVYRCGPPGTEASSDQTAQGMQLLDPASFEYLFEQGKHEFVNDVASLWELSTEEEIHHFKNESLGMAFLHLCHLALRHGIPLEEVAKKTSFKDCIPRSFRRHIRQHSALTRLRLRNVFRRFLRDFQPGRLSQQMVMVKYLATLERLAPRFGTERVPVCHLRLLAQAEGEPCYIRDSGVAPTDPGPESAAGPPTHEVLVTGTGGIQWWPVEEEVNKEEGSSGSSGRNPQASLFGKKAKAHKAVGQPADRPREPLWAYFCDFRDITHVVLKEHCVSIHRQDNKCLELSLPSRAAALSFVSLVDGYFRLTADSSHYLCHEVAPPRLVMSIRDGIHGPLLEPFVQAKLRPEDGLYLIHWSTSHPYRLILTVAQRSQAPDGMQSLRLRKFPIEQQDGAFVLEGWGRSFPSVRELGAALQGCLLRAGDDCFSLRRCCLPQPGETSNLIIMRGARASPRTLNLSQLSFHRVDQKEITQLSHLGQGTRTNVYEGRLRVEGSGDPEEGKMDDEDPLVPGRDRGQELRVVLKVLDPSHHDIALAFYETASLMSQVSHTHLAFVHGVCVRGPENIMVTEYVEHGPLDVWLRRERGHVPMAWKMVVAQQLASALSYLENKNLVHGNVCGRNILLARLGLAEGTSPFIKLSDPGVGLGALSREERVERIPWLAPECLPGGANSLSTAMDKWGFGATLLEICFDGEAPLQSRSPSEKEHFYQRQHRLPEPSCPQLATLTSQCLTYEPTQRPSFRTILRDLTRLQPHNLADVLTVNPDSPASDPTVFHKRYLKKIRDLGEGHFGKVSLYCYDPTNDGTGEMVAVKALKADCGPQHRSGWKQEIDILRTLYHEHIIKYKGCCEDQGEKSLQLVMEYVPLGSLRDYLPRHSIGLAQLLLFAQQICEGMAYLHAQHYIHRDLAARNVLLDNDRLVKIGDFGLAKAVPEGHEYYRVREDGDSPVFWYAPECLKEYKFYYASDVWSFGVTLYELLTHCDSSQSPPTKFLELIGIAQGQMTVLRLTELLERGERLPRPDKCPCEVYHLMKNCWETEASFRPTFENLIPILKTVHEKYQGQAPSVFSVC
Sequence of various enzymes (Homo sapiens, UniProt Q8NEV4) (Q8NEV4 whole entry): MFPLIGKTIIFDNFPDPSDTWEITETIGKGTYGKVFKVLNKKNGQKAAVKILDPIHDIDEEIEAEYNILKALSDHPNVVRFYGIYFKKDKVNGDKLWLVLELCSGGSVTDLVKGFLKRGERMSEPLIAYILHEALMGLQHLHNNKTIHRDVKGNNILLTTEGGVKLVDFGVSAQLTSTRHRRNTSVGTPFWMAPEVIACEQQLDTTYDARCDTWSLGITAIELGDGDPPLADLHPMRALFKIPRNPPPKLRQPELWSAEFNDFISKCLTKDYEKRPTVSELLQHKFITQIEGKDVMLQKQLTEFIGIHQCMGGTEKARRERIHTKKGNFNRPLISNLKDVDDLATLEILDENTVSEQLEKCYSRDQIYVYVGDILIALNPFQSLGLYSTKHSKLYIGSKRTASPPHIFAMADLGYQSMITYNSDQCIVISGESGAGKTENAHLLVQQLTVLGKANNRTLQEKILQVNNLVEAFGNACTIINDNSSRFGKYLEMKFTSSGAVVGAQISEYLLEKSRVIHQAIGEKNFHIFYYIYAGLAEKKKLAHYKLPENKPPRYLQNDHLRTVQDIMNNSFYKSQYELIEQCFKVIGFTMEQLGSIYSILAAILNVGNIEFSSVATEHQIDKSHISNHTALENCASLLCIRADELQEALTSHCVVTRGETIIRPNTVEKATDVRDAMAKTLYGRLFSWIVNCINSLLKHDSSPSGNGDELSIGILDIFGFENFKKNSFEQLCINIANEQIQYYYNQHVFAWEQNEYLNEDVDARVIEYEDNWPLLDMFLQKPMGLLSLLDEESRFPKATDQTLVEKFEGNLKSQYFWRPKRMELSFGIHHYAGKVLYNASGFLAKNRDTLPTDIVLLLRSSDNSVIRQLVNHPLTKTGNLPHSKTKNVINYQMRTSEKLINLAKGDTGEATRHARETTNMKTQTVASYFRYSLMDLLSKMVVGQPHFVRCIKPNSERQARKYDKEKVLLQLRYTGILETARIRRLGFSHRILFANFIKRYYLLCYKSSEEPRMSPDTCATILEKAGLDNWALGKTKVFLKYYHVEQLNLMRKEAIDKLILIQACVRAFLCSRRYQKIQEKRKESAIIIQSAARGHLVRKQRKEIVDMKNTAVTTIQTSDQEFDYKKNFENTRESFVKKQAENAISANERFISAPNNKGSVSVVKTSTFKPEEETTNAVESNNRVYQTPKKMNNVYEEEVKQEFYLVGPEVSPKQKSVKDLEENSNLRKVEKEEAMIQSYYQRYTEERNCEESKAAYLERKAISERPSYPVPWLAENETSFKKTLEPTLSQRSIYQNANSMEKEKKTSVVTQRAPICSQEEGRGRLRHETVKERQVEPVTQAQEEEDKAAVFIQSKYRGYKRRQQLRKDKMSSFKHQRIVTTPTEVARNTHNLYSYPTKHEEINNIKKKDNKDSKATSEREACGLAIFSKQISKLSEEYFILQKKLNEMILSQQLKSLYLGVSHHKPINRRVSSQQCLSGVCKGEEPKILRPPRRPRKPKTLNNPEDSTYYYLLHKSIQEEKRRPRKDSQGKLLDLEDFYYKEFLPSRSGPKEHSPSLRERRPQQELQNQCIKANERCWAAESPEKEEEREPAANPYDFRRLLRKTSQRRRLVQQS
Sequence of various enzymes (Homo sapiens, UniProt Q13554) (Q13554 whole entry): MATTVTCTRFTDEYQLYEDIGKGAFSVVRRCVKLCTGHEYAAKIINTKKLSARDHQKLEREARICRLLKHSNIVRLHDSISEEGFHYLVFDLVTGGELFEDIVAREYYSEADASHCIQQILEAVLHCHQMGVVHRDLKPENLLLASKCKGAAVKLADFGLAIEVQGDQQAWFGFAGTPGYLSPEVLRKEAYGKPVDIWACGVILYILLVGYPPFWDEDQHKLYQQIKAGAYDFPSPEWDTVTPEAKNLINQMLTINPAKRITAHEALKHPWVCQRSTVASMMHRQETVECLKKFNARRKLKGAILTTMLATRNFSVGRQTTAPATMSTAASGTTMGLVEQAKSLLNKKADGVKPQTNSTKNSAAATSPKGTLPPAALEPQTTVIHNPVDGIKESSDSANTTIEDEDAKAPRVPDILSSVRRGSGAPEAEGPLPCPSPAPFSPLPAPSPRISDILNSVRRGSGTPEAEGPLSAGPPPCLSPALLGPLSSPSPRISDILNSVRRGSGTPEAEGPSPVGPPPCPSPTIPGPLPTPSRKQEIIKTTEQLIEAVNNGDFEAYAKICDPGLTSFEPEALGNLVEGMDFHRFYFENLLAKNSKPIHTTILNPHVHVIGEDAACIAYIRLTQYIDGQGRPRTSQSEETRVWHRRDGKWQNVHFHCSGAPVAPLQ
Sequence of various enzymes (Homo sapiens, UniProt P06241) (P06241 whole entry): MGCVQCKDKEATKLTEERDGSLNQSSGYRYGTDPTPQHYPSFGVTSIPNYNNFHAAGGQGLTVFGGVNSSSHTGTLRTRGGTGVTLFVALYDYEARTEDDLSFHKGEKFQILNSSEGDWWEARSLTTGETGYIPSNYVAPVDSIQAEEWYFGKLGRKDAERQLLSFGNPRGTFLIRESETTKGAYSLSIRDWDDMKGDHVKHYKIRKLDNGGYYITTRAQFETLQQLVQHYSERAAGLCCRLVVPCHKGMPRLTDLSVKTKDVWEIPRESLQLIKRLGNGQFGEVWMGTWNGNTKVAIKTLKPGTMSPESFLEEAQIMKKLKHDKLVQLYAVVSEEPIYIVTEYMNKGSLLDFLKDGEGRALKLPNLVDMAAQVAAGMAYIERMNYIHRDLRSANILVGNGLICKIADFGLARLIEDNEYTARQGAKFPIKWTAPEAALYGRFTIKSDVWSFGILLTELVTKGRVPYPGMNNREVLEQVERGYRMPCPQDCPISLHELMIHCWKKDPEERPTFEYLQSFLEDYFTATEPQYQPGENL
Sequence of various enzymes (Homo sapiens, UniProt O96013) (O96013 whole entry): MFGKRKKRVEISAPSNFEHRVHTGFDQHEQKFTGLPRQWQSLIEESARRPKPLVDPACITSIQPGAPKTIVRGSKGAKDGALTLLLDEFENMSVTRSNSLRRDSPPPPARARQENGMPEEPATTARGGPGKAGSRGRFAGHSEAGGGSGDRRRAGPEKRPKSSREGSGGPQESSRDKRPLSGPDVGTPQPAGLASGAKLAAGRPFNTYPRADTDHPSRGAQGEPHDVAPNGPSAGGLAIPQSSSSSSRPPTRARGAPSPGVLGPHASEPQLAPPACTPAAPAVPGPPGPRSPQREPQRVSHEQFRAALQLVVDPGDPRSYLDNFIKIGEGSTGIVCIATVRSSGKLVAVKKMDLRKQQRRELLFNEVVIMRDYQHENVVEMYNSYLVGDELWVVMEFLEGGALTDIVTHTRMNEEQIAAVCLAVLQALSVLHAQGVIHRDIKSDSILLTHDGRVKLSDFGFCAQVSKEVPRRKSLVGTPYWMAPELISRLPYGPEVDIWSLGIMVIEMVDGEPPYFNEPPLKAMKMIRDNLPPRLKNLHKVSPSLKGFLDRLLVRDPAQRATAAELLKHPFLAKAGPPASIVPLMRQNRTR
Sequence of various enzymes (Homo sapiens, UniProt Q16566) (Q16566 whole entry): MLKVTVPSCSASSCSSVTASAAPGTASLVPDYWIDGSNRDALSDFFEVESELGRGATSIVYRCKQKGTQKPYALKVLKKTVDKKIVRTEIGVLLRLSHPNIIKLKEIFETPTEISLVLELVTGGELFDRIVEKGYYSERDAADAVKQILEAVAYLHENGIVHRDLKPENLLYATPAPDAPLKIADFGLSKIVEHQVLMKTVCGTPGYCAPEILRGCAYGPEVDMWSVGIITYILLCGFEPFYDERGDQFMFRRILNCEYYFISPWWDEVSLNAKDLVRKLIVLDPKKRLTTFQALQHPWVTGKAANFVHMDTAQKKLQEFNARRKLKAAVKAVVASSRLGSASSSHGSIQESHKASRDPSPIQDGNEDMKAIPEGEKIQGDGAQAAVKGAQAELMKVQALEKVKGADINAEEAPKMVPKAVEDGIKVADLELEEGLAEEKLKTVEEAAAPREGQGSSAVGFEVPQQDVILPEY

Structure (SMILES) | Ambit profiling: PAK4 [1] | Ambit profiling: MARK4 [2] | Ambit profiling: BTK [3] | Ambit profiling: MYO3A [4] | Ambit profiling: AAK1 [5] | Ambit profiling: FYN [6] | Ambit profiling: CAMK2B [7] | Ambit profiling: FLT1 [8] | Ambit profiling: SGK [9] | Ambit profiling: MAP3K1 [10] | Ambit profiling: GRK2 [11] | Ambit profiling: PCTK3 [13] | Ambit profiling: CAMK4 [14] | Ambit profiling: SRPK2 [15] | Ambit profiling: p38-gamma [16] | Ambit profiling: ROCK2 [17] | Ambit profiling: TYK2(JH1domain-catalytic) [19] | Ambit profiling: TYK2(JH2domain-pseudokinase) [19] | Ambit profiling: ERK4 [20] | Ambit profiling: ABL1(Q252H)-nonphosphorylated [21] | further results
CC(C)N1Cc2nn(C)cc2-c2cnc3[nH]cc(c3c2)-c2cn(nc2C(F)(F)F)CCCC1=O [Compound 45, (Z)-5-isopropyl-31-methyl-13-(trifluoromethyl)-11H,21H,31H-5-aza-2(3,5)-pyrrolo[2,3-b]pyridina-1(4,1),3(4,3)-dipyrazolacyclononaphan-6-one] | 76 | 28 | 55 | 23 | 40 | 39 | 65 | 5.4 | 1.3 | 95 | 100 | 30 | 100 | 100 | 74 | 100 | 19 | 100 | 100 | 3.2 | Ambit profiling: PIK3CA(E545A) ([12]; compound 1 uM): 56; Ambit profiling: KIT(D816H) ([18]; compound 1 uM): 35; Ambit profiling: ABL1(Q252H)-phosphorylated [21]: 20
COc1c2c(nn1C)CN(C(C)C)C(=O)CCCn1cc(c(C(F)(F)F)n1)-c1c[nH]c3ncc-2cc13 [Compound 50, (Z)-5-isopropyl-35-methoxy-31-methyl-13-(trifluoromethyl)-11H,21H,31H-5-aza-2(3,5)-pyrrolo[2,3-b]pyridina-1(4,1),3(4,3)-dipyrazolacyclononaphan-6-one] | 91 | 55 | 56 | 11 | 43 | 28 | 46 | 5.9 | 6 | 72 | 87 | 69 | 100 | 74 | 75 | 67 | 19 | 84 | 82 | 2.4 | Ambit profiling: PIK3CA(E545A) [12]: 82; Ambit profiling: KIT(D816H) [18]: 4.5; Ambit profiling: ABL1(Q252H)-phosphorylated [21]: 1.6
